From patent US5603755A, “Preventive agent for fouling organisms” (Ihara Chemical Industry Co., Ltd., priority 1994, dated 1997) come the findings set out here.

The first data set has as its system Balanus amphitrite. As to the kind of experiment: whole plant or invertebrate. The conditions noted are these: 0.1 ppm; cypris larvae, 20° C., 24 hours (Table 1). Here is the method: The nauplii of Balanus amphitrite, hatched in a natural sea water sterilized by filtration were tamed with a diatom feed to convert them into cypris larvae (settling stage larvae). Ten of these cypris larvae and 4 ml of a natural sea water sterilized by filtration were placed in a laboratory dish having a diameter of 3 cm. 10 mg of a present agent compound was made into 1 g of an emulsion with an emulsifier consisting of cyclohexanone and Tween 80 (a trade name of Kao Atlas Co., Ltd.), and the emulsion was diluted to a given concentration of present agent compound with an artificial sea water. 1 ml of the diluted solution was added into the above laboratory dish. The laboratory dish was allowed to stand in a thermostat of 20° C. for 24 hours, and the number of dead cypris larvae was examined. This test was repeated three times, and the mortality rate of Balanus amphitrite at a given concentration of present agent compound was determined.
A test for mortality rate was conducted in the same manner as in Test 1 except that bis(tributyltin) oxide (hereinafter referred to simply as "TBTO" in some cases) was used as a test compound in place of the present agent compound.
Tests for mortality rate were conducted in the same manner as in Tests 1-10 except that the present agent compounds were changed to those shown in Table 4.
Tests for mortality rate were conducted in the same manner as in Tests 1-10 except that the present agent compounds were changed to those shown in Table 6.
Compound `CCC[CH2][Sn]([CH2]CCC)([CH2]CCC)[O][Sn]([CH2]CCC)([CH2]CCC)[CH2]CCC` [TBTO, bis(tributyltin) oxide, reference compound] registered a Mortality rate of 50%.

The same data set, now with this note: Amphibalanus amphitrite, 24 h, read-out: Mortality rate.
In general, mortality refers to the share of the test organisms that died. Turning to `CC(C)(C)c1csc(C(C#N)=C(O)c2ccccc2Cl)n1` [Test 2], the mortality at 0.1 ppm is 100%.

Consider `N#CC(=C(O)c1c(F)cccc1Cl)c1nc(-c2ccccc2F)cs1` [Test 7], for which the mortality at 0.1 ppm is 100%.

As to `Cc1ccccc1-c1csc(C(C#N)=C(O)c2ccccc2Br)n1` [Test 3], the mortality at 0.1 ppm is 100%.

As for `N#CC(=C(O)c1ccccc1Cl)c1nc(-c2ccccc2)cs1` [Test 1], the mortality at 0.1 ppm amounted to 100%.

As for `Cc1ccccc1-c1csc(C(C#N)=C(O)c2ccccc2I)n1` [Test 4], the mortality at 0.1 ppm worked out at 100%.

In the case of `N#CC(=C(O)c1ccccc1Cl)c1nc(-c2ccccc2Cl)cs1` [Test 5], the mortality at 0.1 ppm is 100%.

As for `N#CC(=C(O)c1ccccc1Cl)c1nc(-c2ccccc2F)cs1` [Test 6], the mortality at 0.1 ppm is 100%.

The same data set, now with this note: barnacle, in vivo, 24 h.
For `CC(=O)OC(=C(C#N)c1nc(-c2ccccc2)cs1)c1ccccc1Cl` [Test 13], the Mortality rate was 100%.

Regarding `N#CC(=C(OC(=O)c1ccccc1)c1ccccc1Cl)c1nc(-c2ccccc2)cs1` [Test 16], the Mortality rate worked out at 100%.

In the case of `N#CC(=C(OS(=O)(=O)c1ccccc1)c1ccccc1Cl)c1nc(-c2ccccc2)cs1` [Test 20], the “Mortality rate” value came out at 100%.

For `CCCCC(=O)OC(=C(C#N)c1nc(-c2ccccc2)cs1)c1ccccc1Cl` [Test 15], the Mortality rate was 100%.

Turning to `CCCCS(=O)(=O)OC(=C(C#N)c1nc(-c2ccccc2)cs1)c1ccccc1Cl` [Test 19], the “Mortality rate” value stood at 100%.

`Cc1ccc(C(=O)OC(=C(C#N)c2nc(-c3ccccc3)cs2)c2ccccc2Cl)cc1` [Test 14] displayed a Mortality rate of 100%.

As to `CS(=O)(=O)OC(=C(C#N)c1nc(-c2ccccc2)cs1)c1ccccc1Cl` [Test 17], the “Mortality rate” value turned out to be 100%.

Regarding `Cc1ccc(S(=O)(=O)OC(=C(C#N)c2nc(-c3ccccc3)cs2)c2ccccc2Cl)cc1` [Test 18], the “Mortality rate” value was determined as 100%.

System in the next data set: not listed separately
As to the kind of experiment: in vivo. The conditions noted are these: rat, po.
The term LD50 denotes the dose expected to kill half of the subjects tested. Compound `N#CC(C(=O)c1ccccc1Cl)=C1NC(c2ccccc2)=CS1` [3-(2-chlorophenyl)-2-(4-phenyl-2,3-dihydrothiazole-2-ylidene)-3-oxopropionitrile] had an LD50 of no less than 5000 mg/kg.
